Data reported in PubChem BioAssay AID1553 (Sanford-Burnham Center for Chemical Genomics, 2009).
“And” between values parts separate entries of the source, which are not always exact repeats. Identical values can stand only once. The source made the active and inactive calls.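 Rule for the calls: active = compounds graded as giving a low, moderate or strong rise in tritium labelling of cell protein versus solvent control; inactive = the rest.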

Test system: HeLa cells, 3H-mannose incorporation into glycoproteins
Experiment: 3H-mannose glycoprotein labeling increase in HeLa – HeLa cells, orthogonal assay for PMI inhibitor project, late-stage follow-up (AID 1553);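 note: 1 fold = DMSO treated HeLa control cells; higher fold signals phosphomannose isomerase inhibition routing mannose into glycosylation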
[1] = fold increase, at 25 µM, stronger effect = higher value

| SMILES | fold increase 3H incorporation (at 100 µM) | fold increase 3H incorporation [1] |
| --- | --- | --- |
| O=C(O)c1cccc(-n2sc3ccccc3c2=O)c1 | 0.5 (inactive) | 0.5 |
| Cc1ccc(N=c2ssnc2Cl)cc1[N+](=O)[O-] | 0.2 | 2.1 |
| Clc1ccc(N=c2ssnc2Cl)cc1Cl | 0.1 (inactive) | 0.1 |
| O=c1c2c([N+](=O)[O-])cc([N+](=O)[O-])cc2sn1-c1ccc(F)cc1 | 0.8 (inactive) | 0.9 |
| Cc1ccc(C)c(-n2sc3ccccc3c2=O)c1 | 1.5 | 1.4 |
| COc1ccc(-c2nc(=S)[nH][nH]2)cc1 | 0.8 (inactive) | 1 |
| O=C1c2ccccc2SC1c1ccccc1 (stereo not given) | 1.7 | 2.1 |
| Cc1c(Cl)cccc1-n1sc2cc([N+](=O)[O-])cc(OCC(F)(F)F)c2c1=O | 1.1 (inactive) | 1.4 |
| Clc1cccc(N=c2ssnc2Cl)c1 | 0.4 | 1.7 |
| Cc1ccc(C)c(N2Cc3ccccc3C2=O)c1 | 1.2 (inactive) | 1.1 |
| S=c1nc(-c2cccc(Cl)c2)[nH][nH]1 | 1 (inactive) | – |
| Cc1ccc(-n2sc3ccccc3c2=O)cc1 | 1 (inactive) and 0.6 (inactive) | 1.1 and 1.2 |
| O=c1c2ccccc2sn1-c1ccc2ccccc2c1 | 1.9 | 1.6 |
| COc1cc(N=c2ssnc2Cl)cc(OC)c1OC | 1.2 (inactive) | 1.1 |
| O=c1c2ccccc2sn1-c1ccc(Cl)c(S(=O)(=O)N2CCOCC2)c1 | 1.2 (inactive) | 1 |
| Cc1ccc(C)c(-n2[nH]c3ccccc3c2=O)c1 | 0.8 (inactive) | 0.9 |
| Oc1ccc(N=c2ssnc2Cl)cc1 | 0.7 (inactive) | 0.8 |
| O=c1c2ccccc2sn1-c1cccc(I)c1 | 0.7 | 3.4 |
| O=C(O)CCn1cc(C=C2C(=O)NC(=S)NC2=O)c(-c2cccc(Br)c2)n1 | 0.8 (inactive) | – |
| Nc1ccccc1N=c1ssnc1Cl | 0.9 (inactive) | 0.9 |
| CN(C)S(=O)(=O)c1cccc(-n2sc3ccccc3c2=O)c1 | 1.1 | 1.1 |

| SMILES | fold increase 3H incorporation (at 100 µM) | fold increase 3H incorporation [1] |
| --- | --- | --- |
| COc1cc(N=c2ssnc2Cl)c(OC)cc1Cl | 1.9 | 1.2 |
| S=c1nc(C2COc3ccccc3O2)[nH][nH]1 (stereo not given) | 0.8 (inactive) | – |
| O=c1c2ccccc2sn1-c1cccc(S(=O)(=O)Nc2ccc(Cl)cc2)c1 | 0.7 (inactive) | 0.4 |
| Cc1ccc(N=c2ssnc2Cl)nc1 | 0 | 1.2 |
| OCc1ccccc1N=c1ssnc1Cl | 0.9 (inactive) | 0.9 |
| CC(C)(C)c1ccc(N=c2ssnc2Cl)cc1 | 1 (inactive) | 0.7 |
| Cc1ccc(N=c2ssnc2Cl)cc1C | 0.8 (inactive) | 0.8 |
| CN(C)c1ccc(N=c2ssnc2Cl)cc1 | 1 (inactive) | 0.8 |
| Cc1ccc(-n2sc3ccccc3c2=O)cc1S(=O)(=O)N1CCCCC1 | 1.4 | 1.2 |
| O=c1c2ccccc2sn1-c1cc(S(=O)(=O)N2CCOCC2)ccc1N1CCOCC1 | 0.4 (inactive) | 0.8 |
| CN(C)c1cccc(-n2sc3ccccc3c2=O)c1 | 1.1 (inactive) | 1.3 |
| COC(=O)c1cccc(-n2sc3ccccc3c2=O)c1 | 1.7 | 1.5 |
| O=c1c2ccccc2sn1-c1cccc(Cl)c1 | 0.6 | 3.4 |
| O=c1c2cc(F)ccc2sn1-c1ccccc1 | 1.6 | 2.3 |
| COc1cc(-c2nc(=S)[nH][nH]2)cc(OC)c1OC | 0.8 (inactive) | – |
| O=c1c2ccccc2sn1-c1cc(S(=O)(=O)N2CCOCC2)ccc1N1CCCC1 | 0.7 (inactive) | 0.7 |
| O=C(O)c1ccccc1NS(=O)(=O)c1cccc(-n2sc3ccccc3c2=O)c1 | 0 (inactive) | 0.2 |
| Clc1nss/c1=N\c1nc2ccccc2s1 | 0.1 (inactive) | 0.7 |
| Cc1cccc(-n2sc3cc(F)ccc3c2=O)c1C | 0.5 | 2.1 |
| Cc1ccc(C)n1-c1nc(=S)[nH][nH]1 | 1 (inactive) | – |
| Clc1nssc1=Nc1ccc(Br)cc1 | 0.5 | 3.6 |

| SMILES | fold increase 3H incorporation (at 100 µM) | fold increase 3H incorporation [1] |
| --- | --- | --- |
| Cc1ccc(C)c(-n2sc3ccc(F)cc3c2=O)c1 | 1 | 2.9 |
| Cc1ccc(C=Nn2c(-c3ccncc3)n[nH]c2=S)cc1 | 1 (inactive) | – |
| COc1ccc(N=c2ssnc2Cl)cc1OC | 0.1 (inactive) | 0.3 |
| O=c1c2c([N+](=O)[O-])cc([N+](=O)[O-])cc2sn1-c1ccccc1F | 0.9 (inactive) | 0.9 |
| Cc1[nH]n(-c2ccccc2)c(=S)c1C=Nc1cccc([N+](=O)[O-])c1 | 0.7 (inactive) | – |
| Cc1ccnc(-n2sc3ccccc3c2=O)n1 | 1 (inactive) | 0.9 |
| COc1cccc(-n2sc3ccccc3c2=O)c1 | 1.4 | 0.8 |
| Cc1cccc(-n2sc3ccccc3c2=O)c1 | 2.3 | 2 |
| N#CC1=C2SCN(Cc3ccccc3)CN2C(=O)CC1c1ccc2c(c1)OCO2 (stereo not given) | 1 (inactive) | – |
| Clc1nssc1=Nc1ccccc1 | 1.9 | 1.2 |
| N#Cc1ccc(N=c2ssnc2Cl)cc1 | 1.1 (inactive) | 1 |
| CCOc1ccc(-c2nc(=S)[nH][nH]2)cc1 | 0.7 (inactive) | – |
| O=c1c2ccccc2sn1-c1cccc(C(F)(F)F)c1 | 0.7 | 1.2 |
| FC(F)(F)c1ccc(N=c2ssnc2Cl)cc1 | 0.3 | 1.4 |
| Clc1ccc(Nc2ccccc2N=c2ssnc2Cl)cc1 | 0.4 (inactive) | 0.3 |
| Clc1ccc(N=c2ssnc2Cl)cc1 | 0.2 (inactive) | 1.1 |
| O=c1c2ccccc2sn1-c1ccc(F)cc1 | 2.5 | 2.5 |
| CCSc1n[nH]c(=S)s1 | 1 (inactive) | 1 |
| O=c1c2c([N+](=O)[O-])cc([N+](=O)[O-])cc2sn1-c1ccc(F)c(Cl)c1 | 0.7 (inactive) | 0.9 |
| COc1cc([N+](=O)[O-])ccc1N=c1ssnc1Cl | 1.4 | 1.3 |
| Clc1nss/c1=N\c1nccs1 | 1 (inactive) | 1.1 |

| SMILES | fold increase 3H incorporation (at 100 µM) | fold increase 3H incorporation [1] |
| --- | --- | --- |
| Cc1cccc(N=c2ssnc2Cl)c1 | 0.7 | 1.6 |
| O=C(NCc1ccccc1)c1cccc(-n2sc3ccccc3c2=O)c1 | 1.2 (inactive) | 1.2 |
| Clc1nss/c1=N\c1nncs1 | 0.5 (inactive) | 0.9 |
| CCc1cc(CC)c(N=c2ssnc2Cl)c(CC)c1 | 0.2 | 0.3 |
| COc1ccc(-c2nc(=S)[nH][nH]2)cc1OC | 0.8 (inactive) | – |
| O=c1c2ccc(F)cc2sn1-c1cc(Cl)ccc1Cl | 0.8 (inactive) | 1 |
| Cc1ccc(N=c2ssnc2Cl)c([N+](=O)[O-])c1 | 3.2 | 1.5 |
| S=c1nc(-c2ccccc2Br)[nH][nH]1 | 0.9 (inactive) | – |
| S=c1nc(-c2cccc(Br)c2)[nH][nH]1 | 0.9 (inactive) | – |
| O=c1c2ccccc2sn1-c1ccccc1 | 1 | 1.1 |
| COc1ccc(OC)c(N=c2ssnc2Cl)c1 | 1.7 | 2.5 |
| O=c1c2ccccc2sn1-c1nccs1 | 1 (inactive) | 0.9 |
| O=[N+]([O-])c1ccc(N=c2ssnc2Cl)c2ccccc12 | 0.4 | 0.5 |
| O=[N+]([O-])c1ccc(N=c2ssnc2Cl)c([N+](=O)[O-])c1 | 1.5 | – |
| Cc1ccc(C)c(-n2sc3cc(F)ccc3c2=O)c1 | 0.6 | 1.4 |
| CN(C)c1cccc(N=c2ssnc2Cl)c1 | 0.2 (inactive) | 0.3 |
| O=c1c2ccc(O)cc2sn1C1CCCC1 | 0.8 (inactive) | 1.1 |
| COc1cc(N=c2ssnc2Cl)cc(OC)c1 | 1.9 | 1.1 |
| O=c1c2ccccc2sn1-c1ccc(Cl)cc1 | 0.6 | 3.4 |
| Cc1ccc(N=c2ssnc2Cl)cc1 | 1.6 | 1.1 |
| COc1ccc2c(=O)n(C3CCCC3)sc2c1 | 0 (inactive) | 0.9 |
